Results: patent publication US10081629B2, “Amide derivatives and pharmaceutically acceptable salts thereof, preparation method thereof and medicinal application thereof” (Shanghai Hengrui Pharmaceutical Co., Ltd., priority 2014, dated 2018)

How the values were obtained:
[1] = tested on: secretion of PGE2 by A549 cells stimulated with IL-1β; assay: Inhibition of the secretion of PGE2 by A549 cells stimulated with IL-1β; format: cell-based; conditions: Homo sapiens, IL-1β 0.2 ng/mL
Description: The method described here was used for determining the inhibition activity of the present compounds on the secretion of PGE2 by A549 cells stimulated with IL-1β.
• 1. PGE2 Assay kit (Cisbio, #62P2APEB) • 2. IL-1β (Peprotech, # AF-200-01B) • 3. Cell line: A549 (ATCC: CCL-185) • 4. FlexStation3 microplate reader. II. Experimental Procedure
On the first day, A549 cells were inoculated in a 96-well plate at 40000/well. On the second day, the culture medium in the 96-well plate was removed and then added with 90 μL of compound diluted with culture medium (the concentration of each compound at seven gradient concentrations was 11111 nM, […], 1.11 nM, 0.11 nM and 0.011 nM). The cells were incubated for 30 minutes at 37° C. in an incubator, and then added with IL-1β to a final concentration of 0.2 ng/mL. Then, the cells were incubated for another 24 hours at 37° C. On the third day, 10 μl of supernatant, 5 μL of PGE2-d2 and 5 μL of anti-PGE2 Cryptate were added into a black 384-well plate, and then incubated at 4° C. overnight. HTRF was determined using Flexstation, and the IC50 of the compounds was obtained by data processing software.
The inhibition activity of the present compounds on the secretion of PGE2 by A549 cells stimulated with IL-1β was determined by the assay described above.

[2] = target: human mPGES1 (Homo sapiens (Human), UniProt O14684); assay: Inhibition activity for human mPGES1 (enzyme assay, PGE2 HTRF); format: biochemical; conditions: membrane protein from HEK-293 F transfected with human mPGES1
Experimental: The method described here is used for determining the inhibition activity of the present compounds for human mPGES1.
• 1. PGE2 Assay kit (Cisbio, #62P2APEB) • 2. Prostaglandin H2 (Sigma, #P7867-1MG) • 3. FlexStation3 microplate reader. II. Experimental Procedure • 1. Obtaining the membrane proteins of mPGES1 enzyme
The cell density of HEK-293 F was grown to 6×10^5 per milliliter and was transferred with the plasmid containing human mPGES1 gene by transfection reagent PEI the next day. The cells were continuously cultured for 72 hours at 37° C. with shaking. After centrifuging at 1100 g for 5 minutes, the cells were harvested. After ultrasonication in an ice bath and centrifugation at 5000 g for 10 minutes, the supernatant was obtained. The supernatant was centrifuged at 100000 g for 1 hour to obtain a precipitate. The precipitate was resuspended with storage buffer containing 10% glycerinum, subpackaged and frozen rapidly under liquid nitrogen, and stored at −80° C. • 2. mPGES1 enzyme assay
mPGES1 was diluted with assay buffer and added into plate at 49 μL/well supplemented with 1 μL of compound (the final concentration of each compound at seven gradient concentrations was 10000 nM, 1000 nM, 100 nM, 10 nM, 1 nM, 0.1 nM and 0.01 nM). […] Then, each well was added with 53.8 μL of 6 mg/mL SnCl2 to quench the reaction. The sample was diluted with dilute buffer at 1:400. 10 μl of diluted sample, 5 μL PGE2-d2 and 5 μL anti-PGE2 Cryptate were added to a black 384-well plate, and incubated at 4° C. overnight. HTRF was determined using Flexstation, and the IC50 of the compounds was obtained by data processing software.
The inhibition activity of the present compounds on mPGES1 was tested by the assay described above.

[3] = Pharmacokinetics assay in rats; format: in vivo; conditions: both sexes, Sprague-Dawley, rat, plasma, po, SD rats, intragastric, 5 mg/kg; for Vd/F: read-out: Apparent Distribution Volume Vz/F; for AUC: read-out: Area Under Curve AUC; for CL/F: read-out: Clearance CLz/F; for half-life: read-out: Half-Life T½ (converted); for MRT: read-out: Mean Residence Time MRT; for Cmax: read-out: Plasma Conc. Cmax
Experimental: Rats were used as test animals. The drug concentration in plasma at different time points was determined by LC/MS/MS after administration of the compounds of Example 8, Example 11, Example 14, Example 17, Example 20, Example 27, Example 33, Example 35, Example 36, Example 37 and Example 48 to rats. The pharmacokinetic behavior of the present compounds was studied and evaluated in rats.
Forty four (44) healthy adult Sprague-Dawley (SD) rats, half male and half female, which were purchased from SINO-BRITSH SIPPR/BK LAB. ANIMAL LTD., CO, with Certificate No.: SCXK (Shanghai) 2008-0016, were divided into 11 groups, with 4 rats in each group.
The appropriate amount of test compounds was weighed, and mixed with 25 μL Tween 80 and Labrasol to prepare a 0.6 mg/mL suspension by ultrasonication.
After an overnight fast, 44 SD rats, half male and half female, were divided into 11 groups, and administered intragastrically at a dose of 5.0 mg/kg and an administration volume of 10 mL/kg.
Blood (0.1 mL) was sampled from the orbital sinus before administration and 0.5 h, 1.0 h, 2.0 h, 4.0 h, 6.0 h, 8.0 h, 11.0 h, and 24.0 h after administration. The samples were stored in EDTA anticoagulation tubes, and centrifuged for 5 minutes at 3,500 rpm to separate the blood plasma. The plasma samples were stored at −20° C. The rats were fed 2 hours after administration.
The plasma concentration of the test compounds in rat after intragastric administration was determined by LC-MS/MS. The linearity of the method is 5.00-2000 ng/mL and 1.00-2000 ng/ml, and the minimum of quantification is 5.00 ng/mL and 1.00 ng/mL.
Plasma samples were analyzed after pretreatment by protein precipitation.

human mPGES1, sequence (O14684 whole entry): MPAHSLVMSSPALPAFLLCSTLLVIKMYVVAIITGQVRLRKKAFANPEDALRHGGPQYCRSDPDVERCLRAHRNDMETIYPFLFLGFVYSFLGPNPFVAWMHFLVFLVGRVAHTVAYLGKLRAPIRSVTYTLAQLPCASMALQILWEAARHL

Compound	IC50 ([1]; A549, 24 hours)	IC50 [2]	Vd/F [3]	AUC [3]	CL/F [3]	half-life [3]	MRT [3]	Cmax [3]	IC50 ([1]; A549, 24 h)
Cn1c(-c2cccc(Cl)c2)cc2nc(NC(=O)c3cc(CNC(=O)C(C)(C)F)cnc3C(F)F)ccc21 [Example 35, N-(2-(3-Chlorophenyl)-1-methyl-1H-pyrrolo[3,2-b]pyridin-5-yl)-2-(difluoromethyl)-5-(((2-fluoro-2-methyl-propanoyl)amino)methyl)nicotinamide]	31.6 nM	4.07 nM	1.85 ± 0.576 L/kg	37400 ± 36700 ng·h/mL	4.69 ± 3.72 mL/min/kg	678 ± 870 min	18.8 ± 20.6 h	1510 ± 517 ng/mL	
CCn1c(-c2ccc(C(F)(F)F)cc2)cc2cc(NC(=O)c3cc(CNC(=O)C(C)(C)F)cnc3C(F)F)ccc21 [Example 17, 2-(Difluoromethyl)-N-(1-ethyl-2-(4-(trifluoromethyl)phenyl)-1H-indol-5-yl)-5-(((2-fluoro-2-methyl-propanoyl)amino)methyl)nicotinamide]	12.1 nM	2.68 nM	20.2 ± 2.6 L/kg	2000 ± 650 ng·h/mL	45.3 ± 15.3 mL/min/kg	326 ± 73.8 min	10.4 ± 1.9 h	155 ± 26 ng/mL	
Cn1c(-c2cccc(Cl)c2)cc2cc(NC(=O)c3cc(CNC(=O)C(C)(C)F)cnc3C(F)F)ncc21 [Example 36, N-(2-(3-Chlorophenyl)-1-methyl-1H-pyrrolo[2,3-c]pyridin-5-yl)-2-(difluoromethyl)-5-(((2-fluoro-2-methyl-propanoyl)amino)methyl)nicotinamide]	13.2 nM	4.19 nM	7.22 ± 1.34 L/kg	3540 ± 1970 ng·h/mL	30.4 ± 17 mL/min/kg	221 ± 144 min	6.56 ± 3.01 h	459 ± 157 ng/mL	
CCn1c(-c2cccc(Cl)c2)cc2nc(NC(=O)c3cc(CNC(=O)C(C)(C)F)cnc3C(F)F)ccc21 [Example 37, N-(2-(3-Chlorophenyl)-1-ethyl-1H-pyrrolo[3,2-b]pyridin-5-yl)-2-(difluoromethyl)-5-(((2-fluoro-2-methyl-propanoyl)amino)methyl)nicotinamide]	22.4 nM	6.46 nM	1.39 ± 0.17 L/kg	23200 ± 14200 ng·h/mL	5.44 ± 4.31 mL/min/kg	269 ± 176 min	7.34 ± 3.76 h	2350 ± 676 ng/mL	
COCCn1c(-c2ccc(C(F)(F)F)cc2)cc2cc(NC(=O)c3cc(CNC(=O)C(C)(C)F)cnc3C(F)F)ccc21 [Example 27, 2-(Difluoromethyl)-5-(((2-fluoro-2-methyl-propanoyl)amino)methyl)-N-(1-(2-methoxyethyl)-2-(4-(trifluoromethyl)phenyl)-1H-indol-5-yl)nicotinamide]	13.4 nM	4.77 nM	15.1 ± 1.53 L/kg	1180 ± 247 ng·h/mL	73.3 ± 15.3 mL/min/kg	148 ± 35.4 min	5.32 ± 1.03 h	193 ± 23 ng/mL	
CCn1c(-c2cccc(Cl)c2)cc2cc(NC(=O)c3cc(CNC(=O)C(C)(C)F)cnc3C(F)F)ccc21 [Example 20, N-(2-(3-Chlorophenyl)-1-ethyl-1H-indol-5-yl)-2-(difluoromethyl)-5-(((2-fluoro-2-methyl-propanoyl)amino)methyl)nicotinamide]	12.6 nM	3.54 nM	5.41 ± 1.81 L/kg	8240 ± 2280 ng·h/mL	10.7 ± 2.7 mL/min/kg	356 ± 120 min	11.1 ± 3 h	681 ± 195 ng/mL	
CCn1c(-c2ccc(F)cc2)cc2cc(NC(=O)c3cc(CNC(=O)C(C)(C)C)ccc3Cl)ccc21 [Example 8, 2-Chloro-N-(1-ethyl-2-(4-fluorophenyl)-1H-indol-5-yl)5-((2,2-dimethylpropanoylamino)methyl)-benzamide]		3.88 nM	10.5 ± 4.66 L/kg	2900 ± 1340 ng·h/mL	32.7 ± 13.1 mL/min/kg	281 ± 224 min	8.21 ± 4.88 h	346 ± 155 ng/mL	19.1 nM
